Results: US11795481B2, “Processes for producing a fermentation product” (Novozymes A/S, priority 2017, dated 2023)

How the values were obtained:
[1] = test system: multi-strain LAB culture; experiment: SSF of control mash with 1% w/w infected mash, AA13 candidates, HPLC of organic acids and ethanol (Example 3); format: cell-based; conditions: SSF 32° C. up to 24 hours, 20% DS; for % delta Ethanol / % delta Lactic Acid: vs No Treatment
Description: A control mash was prepared in-house with an industry relevant blend of AA369 and Protease Pfu using a Lab-O-Mat incubator for 2 hours at 85° C. and 36% DS to simulate typical industry conditions. The mash was then frozen prior to use in SSF. An infected mash was prepared by infecting the control mash with a multi-strain LAB culture grown in MRS. The bacteria in control mash was incubated overnight, and then frozen with 20% glycerol. For this experiment, 1% weight/weight of the infected mash was mixed into the control mash. This mimics an infection event at a large-scale ethanol facility. For SSF, all mash was prepared with 1000 ppm of urea to aid with yeast fermentation. All treatments were dosed with a baseline commercial glucoamylase GSA, while AA13 candidates were dosed at either 10 ug/g-DS or 50 ug/g-DS. SSF was performed at 5 g scale with 10 uL/g rehydrated Ethanol Red yeast at 32° C. for up to 24 hours at 20% DS. At the end of fermentation, samples were deactivated with 50 uL of 40% sulfuric acid and then centrifuged. The supernatant was filtered through a 0.2 μm filter and then measured for soluble carbohydrates and organic acids using an ion-exchange H-column on HPLC.

[2] = test system: mixed bacterial population previously isolated from an infected commercial corn mash; experiment: Low Dry Solids fermentation of 1% infected liquefied corn mash with AA13 polypeptides, HPLC analysis (Example 2); format: cell-based; conditions: after 20 hrs of Low Dry Solids fermentation of corn mash; increasing doses; vs control
Description: Clean liquefied corn mash: Clean corn mash was prepared in our laboratories under typical liquefaction conditions using a blend of AA369 and Protease Pfu. […] Substrate is stored frozen and thawed before use.
Infected liquefied corn mash: Clean corn mash was inoculated with a mixed bacterial population previously isolated from an infected commercial corn mash. The infected mash was incubated with the inoculant for up to 24 hours at approximately 32° C. […] Substrate is frozen in 20% glycerol solution and then thawed before use.
1% Infected liquefied mash: Per every 100 g of “clean” mash, 1 g of infected mash is added and mixed thoroughly.
Low Dry Solids fermentation. 1% Infected Mash was diluted to 20% dry solids. 200 ppm target urea was added as an exogenous nitrogen source for yeast. Commercial glucoamylase GSA, was used at a dose of 0.6 AGU/g-dry solids. Yeast was pitched at a rate of 0.25 g/L. Experimental enzymes were dosed between 2 ppm and 100 ppm. Dosage were against dry solids.
Positive control: Penicillin was used at 25 ppm.
Negative control: No treatment was added.
Yeast, enzymes, and any additional tap water was added at approximately the same time to start fermentation. […]
Fermentations were sampled at various time points to examine soluble carbohydrates and organic acids. […] Analytes were quantified against internal standards. […]
Data was analyzed using SAS JMP statistical software.

Aspergillus terreus: AA13 polypeptide from Aspergillus terreus having the amino acid sequence of SEQ ID NO: 119
average Ethanol ([1]; AA13 dose 10 ug/g-DS): 77.1 g/L | average Lactic Acid ([1]; AA13 dose 10 ug/g-DS): 3.4 g/L | % delta Ethanol ([1]; AA13 dose 10 ug/g-DS): −0.7% | % delta Lactic Acid ([1]; AA13 dose 10 ug/g-DS): 1.3% | average Ethanol ([1]; AA13 dose 50 ug/g-DS): 78.0 g/L | average Lactic Acid ([1]; AA13 dose 50 ug/g-DS): 3.4 g/L | % delta Ethanol ([1]; AA13 dose 50 ug/g-DS): 0.4% | % delta Lactic Acid ([1]; AA13 dose 50 ug/g-DS): 1.3% | lactic acid titers, dose response (FIG. 5) [2]: reduced lactic acid titers compared to the control
